Legend:
Homo sapiens = organism: Homo sapiens; experiment: Selectivity ratio, ratio of IC50 for human PDE4D3 to IC50 for human PDE4B1
[1] = target: 3',5'-cyclic-AMP phosphodiesterase 4B (Homo sapiens, UniProt Q07343); experiment: Inhibition of human PDE4B1 incubated for 10 mins using cAMP and [3H]cAMP substrates
[2] = target: 3',5'-cyclic-AMP phosphodiesterase 4D (Homo sapiens, UniProt Q08499); experiment: Inhibition of human PDE4D3 incubated for 10 mins using cAMP and [3H]cAMP substrates
Mus musculus = experiment: Inhibition of LPS-induced TNFalpha production in po dosed mouse; format: functional; settings: read-out: ID50 (the source's name)
Mustela putorius furo [3] = experiment: Toxicity in ferret assessed as induction of emesis at 1 mg/kg, po measured 6 hrs post dose; format: organism-based; set-up: dose 1 mg/kg, route oral; settings: in vivo
Mustela putorius furo [4] = experiment: Toxicity in ferret assessed as induction of emesis at 0.3 mg/kg, po measured 6 hrs post dose; format: organism-based; set-up: dose 0.3 mg/kg, route oral; settings: in vivo
Mustela putorius furo [5] = experiment: Inhibition of […] in ferret assessed as inhibition of LPS-induced change in number of neutrophils in lung lavage at 10 mg/kg, po; format: functional
Mustela putorius furo [6] = experiment: Toxicity in ferret assessed as induction of emesis at 10 mg/kg, po measured 6 hrs post dose; format: organism-based; set-up: dose 10 mg/kg, route oral; settings: in vivo
[7] = Inhibition of PDE6
[8] = Cmax in mouse at 2 mg/kg, po; format: ADME, organism-based; set-up: dose 2 mg/kg, route oral; settings: in vivo
[9] = AUC (0 to infinity) in ferret at 2 mg/kg, po; format: ADME, organism-based, Mustela putorius furo; set-up: time infinity, dose 2 mg/kg, route oral; settings: plasma
Cytochrome P450 2C9 = Cytochrome P450 2C9 (Homo sapiens, UniProt P11712); experiment: Inhibition of CYP2C9; format: ADME
Sequence of Cytochrome P450 2C9 (P11712 whole entry): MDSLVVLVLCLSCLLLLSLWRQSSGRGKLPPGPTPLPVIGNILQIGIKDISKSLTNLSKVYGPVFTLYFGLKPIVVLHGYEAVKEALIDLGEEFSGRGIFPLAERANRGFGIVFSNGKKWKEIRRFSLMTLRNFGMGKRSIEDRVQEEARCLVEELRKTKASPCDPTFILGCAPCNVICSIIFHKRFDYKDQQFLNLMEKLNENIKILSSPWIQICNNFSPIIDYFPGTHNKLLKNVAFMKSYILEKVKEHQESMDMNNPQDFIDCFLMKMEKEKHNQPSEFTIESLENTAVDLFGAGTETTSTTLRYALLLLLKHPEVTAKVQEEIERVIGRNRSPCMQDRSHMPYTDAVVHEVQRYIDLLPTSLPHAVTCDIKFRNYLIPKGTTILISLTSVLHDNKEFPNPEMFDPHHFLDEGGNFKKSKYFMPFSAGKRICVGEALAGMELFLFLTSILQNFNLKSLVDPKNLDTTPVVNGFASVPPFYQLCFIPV

Mustela putorius furo [10] = experiment: Toxicity in ferret assessed as induction of emesis at 200 mg/kg, po measured 6 hrs post dose; format: organism-based; set-up: dose 200 mg/kg, route oral; settings: in vivo
[11] = Oral bioavailability in mouse; format: ADME, organism-based; settings: in vivo
[12] = AUC (0 to infinity) in mouse at 2 mg/kg, po; format: ADME, organism-based; set-up: time infinity, dose 2 mg/kg, route oral; settings: plasma
[13] = target: cGMP-specific 3',5'-cyclic phosphodiesterase (Homo sapiens, UniProt O76074); experiment: Inhibition of PDE5
[14] = Cmax in ferret at 2 mg/kg, po; format: ADME, organism-based, Mustela putorius furo; set-up: dose 2 mg/kg, route oral; settings: in vivo
[15] = Inhibition of PDE3
Mustela putorius furo [16] = experiment: Toxicity in ferret assessed as induction of emesis at 100 mg/kg, po measured 6 hrs post dose; format: organism-based; set-up: dose 100 mg/kg, route oral; settings: in vivo
[17] = Inhibition of PDE1
Cytochrome P450 3A4 = Cytochrome P450 3A4 (Homo sapiens, UniProt P08684); experiment: Inhibition of CYP3A4; format: ADME
Sequence of Cytochrome P450 3A4 (P08684 whole entry): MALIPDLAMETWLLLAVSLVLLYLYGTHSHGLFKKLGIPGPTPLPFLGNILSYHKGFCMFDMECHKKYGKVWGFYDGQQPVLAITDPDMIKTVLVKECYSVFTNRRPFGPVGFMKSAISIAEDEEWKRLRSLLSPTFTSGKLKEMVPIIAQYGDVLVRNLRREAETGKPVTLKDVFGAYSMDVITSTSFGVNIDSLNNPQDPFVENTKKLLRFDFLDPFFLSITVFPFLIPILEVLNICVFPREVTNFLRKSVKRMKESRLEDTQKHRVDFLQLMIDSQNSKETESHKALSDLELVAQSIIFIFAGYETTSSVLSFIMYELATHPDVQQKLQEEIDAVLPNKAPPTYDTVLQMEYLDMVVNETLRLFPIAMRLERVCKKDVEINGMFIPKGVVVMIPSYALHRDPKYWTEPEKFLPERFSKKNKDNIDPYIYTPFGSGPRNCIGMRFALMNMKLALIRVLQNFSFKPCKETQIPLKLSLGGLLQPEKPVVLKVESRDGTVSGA

Cytochrome P450 1A2 = target: T1, Cytochrome P450 1A2 (Homo sapiens, UniProt P05177); experiment: Inhibition of CYP1A2; format: ADME
T1 sequence (P05177 whole entry): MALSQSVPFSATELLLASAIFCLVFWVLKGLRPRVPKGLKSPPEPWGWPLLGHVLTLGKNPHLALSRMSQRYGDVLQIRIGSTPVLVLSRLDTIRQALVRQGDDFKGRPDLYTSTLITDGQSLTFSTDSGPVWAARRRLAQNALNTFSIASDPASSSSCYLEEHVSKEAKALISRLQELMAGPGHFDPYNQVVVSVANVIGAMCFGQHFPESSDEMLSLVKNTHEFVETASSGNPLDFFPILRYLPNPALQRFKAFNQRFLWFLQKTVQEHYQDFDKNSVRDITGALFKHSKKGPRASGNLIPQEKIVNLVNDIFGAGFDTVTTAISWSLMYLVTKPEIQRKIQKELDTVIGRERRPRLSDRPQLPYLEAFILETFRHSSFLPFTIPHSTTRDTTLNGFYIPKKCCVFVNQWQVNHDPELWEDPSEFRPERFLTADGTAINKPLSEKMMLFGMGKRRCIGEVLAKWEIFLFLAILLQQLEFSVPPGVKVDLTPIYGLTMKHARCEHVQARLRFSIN

Cytochrome P450 2D6 = Cytochrome P450 2D6 (Homo sapiens, UniProt P10635); experiment: Inhibition of CYP2D6; format: ADME
Sequence of Cytochrome P450 2D6 (P10635 whole entry): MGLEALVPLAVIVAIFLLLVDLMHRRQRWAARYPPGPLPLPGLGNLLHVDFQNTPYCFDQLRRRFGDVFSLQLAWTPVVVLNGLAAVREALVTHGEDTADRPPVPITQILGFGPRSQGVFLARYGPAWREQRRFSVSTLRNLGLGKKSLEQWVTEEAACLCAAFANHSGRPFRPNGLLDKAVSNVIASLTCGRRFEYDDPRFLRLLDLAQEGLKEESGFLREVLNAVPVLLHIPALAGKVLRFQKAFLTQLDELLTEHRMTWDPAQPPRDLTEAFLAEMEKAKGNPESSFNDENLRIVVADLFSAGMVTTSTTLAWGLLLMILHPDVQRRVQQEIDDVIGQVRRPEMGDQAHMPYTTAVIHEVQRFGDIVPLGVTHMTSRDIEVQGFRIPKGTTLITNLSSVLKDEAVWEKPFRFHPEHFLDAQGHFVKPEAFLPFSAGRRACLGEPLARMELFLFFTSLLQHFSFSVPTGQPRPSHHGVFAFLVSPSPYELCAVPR

Mustela putorius furo [18] = experiment: Inhibition of […] in ferret assessed as inhibition of LPS-induced change in number of neutrophils in lung lavage at 25 mg/kg, po; format: functional
Mustela putorius furo [19] = experiment: Inhibition of […] in ferret assessed as inhibition of LPS-induced change in number of neutrophils in lung lavage at 12.5 mg/kg, po; format: functional

Sequence of 3',5'-cyclic-AMP phosphodiesterase 4B (Q07343 whole entry): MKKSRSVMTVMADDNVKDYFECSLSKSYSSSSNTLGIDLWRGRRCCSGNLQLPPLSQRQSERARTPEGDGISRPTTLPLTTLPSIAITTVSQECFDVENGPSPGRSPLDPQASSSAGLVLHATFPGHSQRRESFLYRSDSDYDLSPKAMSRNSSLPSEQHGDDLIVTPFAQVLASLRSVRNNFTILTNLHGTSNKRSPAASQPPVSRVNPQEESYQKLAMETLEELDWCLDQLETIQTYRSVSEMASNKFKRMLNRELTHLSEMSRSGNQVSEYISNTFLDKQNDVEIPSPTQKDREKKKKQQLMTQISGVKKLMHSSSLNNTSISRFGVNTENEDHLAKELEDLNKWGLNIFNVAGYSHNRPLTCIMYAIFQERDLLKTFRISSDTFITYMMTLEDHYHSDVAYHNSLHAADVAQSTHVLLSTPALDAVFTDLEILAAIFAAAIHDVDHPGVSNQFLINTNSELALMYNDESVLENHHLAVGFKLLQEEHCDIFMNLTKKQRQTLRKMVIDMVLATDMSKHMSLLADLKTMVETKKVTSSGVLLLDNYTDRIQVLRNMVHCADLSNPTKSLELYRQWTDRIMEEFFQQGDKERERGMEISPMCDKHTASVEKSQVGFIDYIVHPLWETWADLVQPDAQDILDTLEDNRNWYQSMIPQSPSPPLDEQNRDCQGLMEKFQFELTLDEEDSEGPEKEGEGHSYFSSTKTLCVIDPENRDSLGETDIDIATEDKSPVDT
Sequence of 3',5'-cyclic-AMP phosphodiesterase 4D (Q08499 whole entry): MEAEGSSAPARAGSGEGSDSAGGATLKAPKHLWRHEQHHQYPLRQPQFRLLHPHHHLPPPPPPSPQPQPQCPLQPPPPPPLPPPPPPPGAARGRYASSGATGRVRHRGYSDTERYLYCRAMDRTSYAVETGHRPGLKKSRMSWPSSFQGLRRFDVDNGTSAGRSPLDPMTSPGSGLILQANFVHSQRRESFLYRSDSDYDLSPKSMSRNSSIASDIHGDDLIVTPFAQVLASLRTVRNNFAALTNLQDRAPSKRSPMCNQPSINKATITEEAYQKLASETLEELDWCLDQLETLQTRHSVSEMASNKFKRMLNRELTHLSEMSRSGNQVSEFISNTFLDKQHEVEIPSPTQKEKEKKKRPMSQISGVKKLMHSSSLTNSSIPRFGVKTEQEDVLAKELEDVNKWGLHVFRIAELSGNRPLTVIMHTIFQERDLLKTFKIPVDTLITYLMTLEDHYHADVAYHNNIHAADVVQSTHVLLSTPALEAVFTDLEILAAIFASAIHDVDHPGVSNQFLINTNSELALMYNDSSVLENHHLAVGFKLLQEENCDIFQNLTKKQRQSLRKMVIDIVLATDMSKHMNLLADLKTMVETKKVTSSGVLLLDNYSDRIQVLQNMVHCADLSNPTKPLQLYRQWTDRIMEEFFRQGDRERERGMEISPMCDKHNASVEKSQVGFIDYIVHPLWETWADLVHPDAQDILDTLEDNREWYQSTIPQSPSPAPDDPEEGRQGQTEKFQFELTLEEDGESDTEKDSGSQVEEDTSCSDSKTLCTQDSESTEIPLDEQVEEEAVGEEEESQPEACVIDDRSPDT

Ratio IC50 (Homo sapiens) | IC50 [1] | IC50 [2] | SMILES | also measured
 | > 1000 nM |  | Cc1nc(-c2ccccc2)nc(Nc2ccc(C(=O)O)cc2)c1Cc1ccccc1 | 
8.9 | 220 nM | 2000 nM | C=CCc1c(C)nc(-c2ccc(OC)cc2)nc1Nc1ccc(C(=O)O)cc1 | 
2.4 | 34 nM | 82 nM | C=CCc1c(CC)nc(-c2ccccc2)nc1Nc1ccc(C(=O)O)cc1 | 
15 | 140 nM | 2100 nM | CCc1c(C)nc(-c2ccccc2)nc1Nc1ccc(C(=O)O)cc1 | 
12 | 120 nM | 1500 nM | Cc1nc(-c2ccccc2)nc(Nc2ccc(C(=O)O)cc2)c1C#N | 
6.9 | 210 nM | 1500 nM | C=CCc1c(C)nc(-c2cccc(C)c2)nc1Nc1ccc(C(=O)O)cc1 | 
9.7 | 190 nM | 1900 nM | C=CCc1c(C)nc(-c2ccccc2)nc1Nc1ccc(C(=O)O)cc1 | 
 | > 1000 nM |  | Cc1nc(-c2ccccc2)nc(Nc2ccc(C(=O)O)cc2)c1CN | 
 | 1800 nM | > 10000 nM | C=CCc1c(C)nc(-c2ccccc2)nc1Nc1ccc(CC(=O)O)cc1 | 
15 | 540 nM | 8000 nM | Cc1nc(-c2ccccc2)nc(Nc2ccc(C(=O)O)cc2)c1CO | 
 | > 1000 nM |  | CCCCc1c(C)nc(-c2ccccc2)nc1Nc1ccc(C(=O)O)cc1 | 
5.2 | 300 nM | 1500 nM | Cc1nc(-c2ccccc2)nc(Nc2ccc(C(=O)O)cc2)c1C=O | 
5.6 | 1300 nM | 7600 nM | CCCc1c(C)nc(-c2ccccc2)nc1Nc1ccc(C(=O)O)cc1 | 
 | > 1000 nM |  | Cc1nc(-c2ccccc2)nc(Nc2ccc(C(=O)O)cc2)c1C(C)C | 
7.9 | 430 nM | 3400 nM | Cc1nc(-c2ccccc2)nc(Nc2ccc(C(=O)O)cc2)c1C | 
3.4 | 690 nM | 2400 nM | C=CCc1c(CCC)nc(-c2ccccc2)nc1Nc1ccc(C(=O)O)cc1 | 
 | > 1000 nM |  | C=CCc1c(Nc2ccc(C(=O)O)cc2)nc(-c2ccccc2)nc1C(C)C | 
13 | 220 nM | 2800 nM | C=CCc1c(C)nc(-c2ccc(C)cc2)nc1Nc1ccc(C(=O)O)cc1 | 

The next lines start with the compound.

SMILES | Ratio IC50 (Homo sapiens) | IC50 [1] | IC50 [2] | also measured
C=CCc1c(C)nc(-c2cccc(C)c2)nc1Nc1ccc(CC(=O)O)cc1 | 8 | 1200 nM | 9900 nM | 
COc1ccc([C@]2(C#N)CC[C@@H](C(=O)O)CC2)cc1OC1CCCC1 [CILOMILAST] |  |  |  | ED50 (Mus musculus): 2.2 mg/kg; Activity (Mustela putorius furo [3]): Toxic; Activity (Mustela putorius furo [4]): Non-toxic; inhibition in vivo at 10 mg/kg (Mustela putorius furo [5]): 35%; Activity (Mustela putorius furo [6]): Toxic
CCc1c(C)nc(-c2ccc(SC)s2)nc1Nc1ccc(CC(=O)O)cc1 | 43 | 34 nM | 1500 nM | 
C=CCc1c(C)nc(-c2ccc(C)s2)nc1Nc1ccc(CC(=O)O)cc1 | 28 | 320 nM | 8800 nM | 
C=CCc1c(C)nc(-c2ccc(C)cc2)nc1Nc1ccc(CC(=O)O)cc1 | 12 | 940 nM | 11000 nM | 
C=CCc1c(C)nc(-c2ccc(OC)cc2)nc1Nc1ccc(CC(=O)O)cc1 | 8 | 600 nM | 4800 nM | 
C=CCc1c(C)nc(-c2csc(C)n2)nc1Nc1ccc(C(=O)O)cc1 | 4.2 | 2800 nM | 12000 nM | 
CCc1c(C)nc(-c2ccc(Cl)s2)nc1Nc1ccc(CC(=O)O)cc1 | 114 | 15 nM | 1700 nM | IC50 [7]: > 2000 nM; Cmax [8]: 8700 ng/mL; AUC(0-inf) [9]: 33500 ng·h/mL; IC50 (Cytochrome P450 2C9): > 10000 nM; ED50 (Mus musculus): 14 mg/kg; Activity (Mustela putorius furo [10]): Toxic; bioavailability [11]: 85%; AUC(0-inf) [12]: 52300 ng·h/mL; IC50 [13]: > 2000 nM; Cmax [14]: 4500 ng/mL; IC50 [15]: > 2000 nM; Activity (Mustela putorius furo [16]): Non-toxic; IC50 [17]: > 2000 nM; IC50 (Cytochrome P450 3A4): > 10000 nM; IC50 (Cytochrome P450 1A2): > 10000 nM; IC50 (Cytochrome P450 2D6): > 10000 nM; inhibition in vivo at 25 mg/kg (Mustela putorius furo [18]): 46%; inhibition in vivo at 12.5 mg/kg (Mustela putorius furo [19]): 44%
C=CCc1c(C)nc(-c2ccc(C)s2)nc1Nc1ccc(C(=O)O)cc1 | 8.6 | 150 nM | 1300 nM | 
C=CCc1c(C)nc(-c2ccc(OC)s2)nc1Nc1ccc(C(=O)O)cc1 | 9.8 | 78 nM | 760 nM | 
C=CCc1c(C)nc(-c2cnccn2)nc1Nc1ccc(C(=O)O)cc1 | 3.5 | 860 nM | 3000 nM | 
CCc1c(C)nc(-c2ccc(Br)s2)nc1Nc1ccc(CC(=O)O)cc1 | 87 | 19 nM | 1600 nM | 
C=CCc1c(C)nc(-c2ccsc2)nc1Nc1ccc(C(=O)O)cc1 | 15 | 68 nM | 990 nM | 
C=CCc1c(C)nc(-c2ccccn2)nc1Nc1ccc(C(=O)O)cc1 | 4.1 | 3700 nM | 15000 nM | 
CCc1c(C)nc(-c2cc(Br)c(C)s2)nc1Nc1ccc(CC(=O)O)cc1 | 420 | 6.8 nM | 2900 nM | 
C=CCc1c(C)nc(-c2ccc(OC)s2)nc1Nc1ccc(CC(=O)O)cc1 | 29 | 190 nM | 5300 nM | 
C=CCc1c(C)nc(-c2cccs2)nc1Nc1ccc(C(=O)O)cc1 | 11 | 120 nM | 1300 nM | 
CCc1c(C)nc(-c2ccc(F)s2)nc1Nc1ccc(CC(=O)O)cc1F | 205 | 15 nM | 3100 nM | Cmax [8]: 10900 ng/mL; AUC(0-inf) [9]: 341000 ng·h/mL; IC50 (Cytochrome P450 2C9): > 10000 nM; bioavailability [11]: 73%; AUC(0-inf) [12]: 21900 ng·h/mL; Cmax [14]: 14800 ng/mL; IC50 (Cytochrome P450 3A4): > 10000 nM; IC50 (Cytochrome P450 1A2): > 10000 nM; IC50 (Cytochrome P450 2D6): > 10000 nM

Source: ChEMBL document CHEMBL1782001, “Discovery of selective PDE4B inhibitors” (Bioorg Med Chem Lett, 2009)
